The values that follow come from US20250312352A1, “GLP-1R MODULATING COMPOUNDS” (Gilead Sciences, Inc., priority 2021, published 2025).

This test deals with T1, GLP-1R (Homo sapiens, UniProt P43220).
T1 construct: host or cells: CHO cells
T1 sequence (P43220 24-463): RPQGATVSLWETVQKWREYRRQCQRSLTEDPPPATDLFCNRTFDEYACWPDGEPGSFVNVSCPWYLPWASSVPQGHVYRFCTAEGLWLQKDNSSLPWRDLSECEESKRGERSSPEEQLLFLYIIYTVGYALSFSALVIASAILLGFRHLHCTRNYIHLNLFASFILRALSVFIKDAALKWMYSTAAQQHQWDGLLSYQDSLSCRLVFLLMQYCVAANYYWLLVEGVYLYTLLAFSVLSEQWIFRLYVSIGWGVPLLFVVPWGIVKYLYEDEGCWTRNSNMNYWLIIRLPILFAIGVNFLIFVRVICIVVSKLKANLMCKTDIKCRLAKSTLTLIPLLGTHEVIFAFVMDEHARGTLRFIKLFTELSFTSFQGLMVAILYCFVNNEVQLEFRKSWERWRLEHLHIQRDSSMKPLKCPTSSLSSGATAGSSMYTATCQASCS
In words: GLP-1R activation cAMP assay (Assay 1 or Assay 2). It is filed as cell-based. The conditions noted are these: cAMP increase in CHO cells stably expressing GLP-1R; compounds run on one of the two cAMP assays. In short, it runs like this: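 EC50 values come from a sigmoidal fit of HTRF-detected cAMP rise versus log agonist concentration. GLP-1R-expressing CHO cells, equilibrated 1 h at 37 °C in HBSS with HEPES and BSA, received a 10-point compound dose series for 30 min before detection.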
(In general: Changes in cAMP serve as a functional read-out for many G protein-coupled receptors.)
As for `O=C(O)c1ccc2nc(Cc3cc(F)c(-c4cccc(OCc5ncc(C#Cc6cscn6)cc5F)n4)cc3F)n(C[C@@H]3CCO3)c2c1` [Example 292, (S)-2-(2,5-difluoro-4-(6-((3-fluoro-5-(thiazol-4-ylethynyl)pyridin-2-yl)methoxy)pyridin-2-yl)benzyl)-1-(oxetan-2-ylmethyl)-1H-benzo[d]imidazole-6-carboxylic acid], the concentration giving a half-maximal response (EC50) turned out to be 0.499 nM.
`NC(=O)c1nc(COc2cccc(-c3cc(F)c(Cc4nc5ccc(C(=O)O)cc5n4C[C@@H]4CCO4)cc3F)n2)cs1` [Example 8, (S)-2-(4-(6-((2-carbamoylthiazol-4-yl)methoxy)pyridin-2-yl)-2,5-difluorobenzyl)-1-(oxetan-2-ylmethyl)-1H-benzo[d]imidazole-6-carboxylic acid] gave an EC50 of 0.92 nM.
`O=C(O)c1ccc2nc(Cc3cc(F)c(-c4cccc(OCc5csc(Cl)n5)n4)cc3F)n(C[C@@H]3CCO3)c2c1` [Example 50, (S)-2-(4-(6-((2-chlorothiazol-4-yl)methoxy)pyridin-2-yl)-2,5-difluorobenzyl)-1-(oxetan-2-ylmethyl)-1H-benzo[d]imidazole-6-carboxylic acid] yielded an EC50 of 0.67 nM.
Next, `Cn1nccc1CNC(=O)c1cc(Cl)c(COc2cccc(-c3cc(F)c(Cc4nc5ccc(C(=O)O)cc5n4C[C@@H]4CCO4)cc3F)n2)cn1` [Example 195, (S)-2-(4-(6-((4-chloro-6-(((1-methyl-1H-pyrazol-5-yl)methyl)carbamoyl)pyridin-3-yl)methoxy)pyridin-2-yl)-2,5-difluorobenzyl)-1-(oxetan-2-ylmethyl)-1H-benzo[d]imidazole-6-carboxylic acid]: 0.11 nM; `O=C(O)c1cc(F)c2nc(Cc3cc(F)c(-c4ccc(F)c(OCc5ncc(Cl)s5)n4)cc3F)n(C[C@@H]3CCO3)c2c1` [Example 311, (S)-2-(4-(6-((5-chlorothiazol-2-yl)methoxy)-5-fluoropyridin-2-yl)-2,5-difluorobenzyl)-4-fluoro-1-(oxetan-2-ylmethyl)-1H-benzo[d]imidazole-6-carboxylic acid]: 0.03 nM.
On to `O=C(O)c1cc(F)c2nc(Cc3cc(F)c(-c4cccc(OCc5ncc(C#CC6(C(F)F)CC6)cc5Cl)n4)cc3F)n(C[C@@H]3CCO3)c2c1` [Example 381, (S)-2-(4-(6-((3-chloro-5-((1-(difluoromethyl)cyclopropyl)ethynyl)pyridin-2-yl)methoxy)pyridin-2-yl)-2,5-difluorobenzyl)-4-fluoro-1-(oxetan-2-ylmethyl)-1H-benzo[d]imidazole-6-carboxylic acid], for which the EC50 was 0.301 nM.
Turning to `N#Cc1ccc(COc2cccc(-c3cc(F)c(Cc4nc5ccc(C(=O)O)cc5n4C[C@@H]4CCO4)cc3F)n2)o1` [Example 14, (S)-2-(4-(6-((5-cyanofuran-2-yl)methoxy)pyridin-2-yl)-2,5-difluorobenzyl)-1-(oxetan-2-ylmethyl)-1H-benzo[d]imidazole-6-carboxylic acid], it took 5.68 nM to reach a half-maximal effect (EC50).
Molecule `O=C(O)c1ccc2nc(Cc3cc(F)c(-c4cccc(OCc5nnc(C(F)(F)F)s5)n4)cc3F)n(C[C@@H]3CCO3)c2c1` [Example 25, (S)-2-(2,5-difluoro-4-(6-((5-(trifluoromethyl)-1,3,4-thiadiazol-2-yl)methoxy)pyridin-2-yl)benzyl)-1-(oxetan-2-ylmethyl)-1H-benzo[d]imidazole-6-carboxylic acid] registered an EC50 of 0.53 nM.
Then `O=C(O)c1ccc2nc(Cc3cc(F)c(-c4cccc(OCc5nnc(Cl)s5)n4)cc3F)n(C[C@@H]3CCO3)c2c1` [Example 49, (S)-2-(4-(6-((5-chloro-1,3,4-thiadiazol-2-yl)methoxy)pyridin-2-yl)-2,5-difluorobenzyl)-1-(oxetan-2-ylmethyl)-1H-benzo[d]imidazole-6-carboxylic acid], with 0.65 nM; and `O=C(O)c1ccc2nc(Cc3cc(F)c(-c4cccc(OCc5ccc(C(F)(F)F)s5)n4)cc3F)n(C[C@@H]3CCO3)c2c1` [Example 123, (S)-2-(2,5-difluoro-4-(6-((5-(trifluoromethyl)thiophen-2-yl)methoxy)pyridin-2-yl)benzyl)-1-(oxetan-2-ylmethyl)-1H-benzo[d]imidazole-6-carboxylic acid], with 2.65 nM; and `CC1(C#Cc2cnc(COc3cccc(-c4cc(F)c(Cc5nc6c(F)cc(C(=O)O)cc6n5C[C@@H]5CCO5)cc4F)n3)c(Cl)c2)CC1` [Example 379, (S)-2-(4-(6-((3-chloro-5-((1-methylcyclopropyl)ethynyl)pyridin-2-yl)methoxy)pyridin-2-yl)-2,5-difluorobenzyl)-4-fluoro-1-(oxetan-2-ylmethyl)-1H-benzo[d]imidazole-6-carboxylic acid], with 0.303 nM.
As to `N#Cc1ccc(-c2cnc(COc3cccc(-c4cc(F)c(Cc5nc6ccc(C(=O)O)cc6n5C[C@@H]5CCO5)cc4F)n3)s2)cc1` [Example 383, (S)-2-(4-(6-((5-(4-cyanophenyl)thiazol-2-yl)methoxy)pyridin-2-yl)-2,5-difluorobenzyl)-1-(oxetan-2-ylmethyl)-1H-benzo[d]imidazole-6-carboxylic acid], the EC50 stood at 0.6 nM.
On to `O=C(O)c1cc(F)c2nc(Cc3ccc(-c4cccc(OCc5cc6n(n5)CCC6)n4)c(F)c3)n(C[C@@H]3CCO3)c2c1` [Example 69, (S)-2-(4-(6-((5,6-dihydro-4H-pyrrolo[1,2-b]pyrazol-2-yl)methoxy)pyridin-2-yl)-3-fluorobenzyl)-4-fluoro-1-(oxetan-2-ylmethyl)-1H-benzo[d]imidazole-6-carboxylic acid], for which the EC50 was found to be 2.59 nM.
As to `O=C(O)c1ccc2nc(Cc3cc(F)c(-c4ccc(F)c(OCc5ncc(C(F)F)s5)n4)cc3F)n(C[C@@H]3CCO3)c2c1` [Example 406, (S)-2-(4-(6-((5-(difluoromethyl)thiazol-2-yl)methoxy)-5-fluoropyridin-2-yl)-2,5-difluorobenzyl)-1-(oxetan-2-ylmethyl)-1H-benzo[d]imidazole-6-carboxylic acid], the concentration giving a half-maximal response (EC50) came to 0.385 nM.
`CNC(=O)c1cc(Cl)c(COc2cccc(-c3ccc(Cc4nc5ccc(C(=O)O)cc5n4CC4(CF)CC4)c(F)c3)n2)cn1` [Example 402, 2-(4-(6-((4-chloro-6-(methylcarbamoyl)pyridin-3-yl)methoxy)pyridin-2-yl)-2-fluorobenzyl)-1-((1-(fluoromethyl)cyclopropyl)methyl)-1H-benzo[d]imidazole-6-carboxylic acid] displayed an EC50 of 0.208 nM.
Next, `NC(=O)c1ccc(COc2cccc(-c3cc(F)c(Cc4nc5ccc(C(=O)O)cc5n4C[C@@H]4CCO4)cc3F)n2)nc1` [Example 248, 2-[[4-[6-[(5-carbamoyl-2-pyridyl)methoxy]-2-pyridyl]-2,5-difluoro-phenyl]methyl]-3-[[(2S)-oxetan-2-yl]methyl]benzimidazole-5-carboxylic acid]: 5.61 nM; `CNC(=O)c1cc(Cl)c(COc2cccc(-c3cc(F)c(Cc4nc5c(F)cc(C(=O)O)cc5n4C[C@@H]4CCO4)cc3C)n2)cn1` [Example 394, (S)-2-(4-(6-((4-chloro-6-(methylcarbamoyl)pyridin-3-yl)methoxy)pyridin-2-yl)-2-fluoro-5-methylbenzyl)-4-fluoro-1-(oxetan-2-ylmethyl)-1H-benzo[d]imidazole-6-carboxylic acid]: 0.62 nM.

What is called EC50 is the midpoint of the concentration-response curve. Read a high EC50 as a less potent agent.
